Patent publication US12139744B2, “Stabilisation of biological samples” (QIAGEN GmbH, priority 2013, dated 2024)
* marks the point of attachment. Cbz = O=C(OCc1ccccc1)*; CH2F = FC*

What was measured:
calpain II = target: T1, calpain II (Homo sapiens, UniProt P17655); settings: irreversible inhibitor; cited from earlier work
T1 sequence (P17655 1-700): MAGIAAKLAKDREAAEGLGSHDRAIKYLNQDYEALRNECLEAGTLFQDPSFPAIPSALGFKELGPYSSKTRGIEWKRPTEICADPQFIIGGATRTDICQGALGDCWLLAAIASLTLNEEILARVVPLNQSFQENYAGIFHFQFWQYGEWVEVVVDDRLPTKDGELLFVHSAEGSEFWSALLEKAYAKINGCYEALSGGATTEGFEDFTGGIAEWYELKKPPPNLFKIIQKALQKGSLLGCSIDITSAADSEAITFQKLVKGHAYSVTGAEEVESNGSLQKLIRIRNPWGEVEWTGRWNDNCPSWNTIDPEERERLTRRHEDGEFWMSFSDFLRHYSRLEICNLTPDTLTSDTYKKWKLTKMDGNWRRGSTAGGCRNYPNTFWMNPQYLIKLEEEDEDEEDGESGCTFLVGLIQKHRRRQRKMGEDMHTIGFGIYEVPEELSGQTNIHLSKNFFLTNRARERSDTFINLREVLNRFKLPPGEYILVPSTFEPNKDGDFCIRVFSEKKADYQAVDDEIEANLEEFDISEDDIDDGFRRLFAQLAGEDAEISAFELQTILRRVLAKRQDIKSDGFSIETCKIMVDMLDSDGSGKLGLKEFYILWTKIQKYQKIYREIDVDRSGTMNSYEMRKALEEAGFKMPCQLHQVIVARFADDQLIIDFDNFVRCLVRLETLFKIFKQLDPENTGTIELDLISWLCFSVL
T1 sequence (P04632 1-268 partner): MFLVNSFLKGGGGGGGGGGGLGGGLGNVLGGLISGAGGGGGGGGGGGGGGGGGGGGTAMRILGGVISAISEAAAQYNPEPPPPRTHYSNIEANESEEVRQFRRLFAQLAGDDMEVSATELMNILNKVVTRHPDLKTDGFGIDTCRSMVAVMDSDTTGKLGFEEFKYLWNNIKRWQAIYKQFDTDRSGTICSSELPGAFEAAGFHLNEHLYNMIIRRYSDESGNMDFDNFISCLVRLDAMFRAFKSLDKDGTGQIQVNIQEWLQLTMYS

cells = settings: cited from earlier work
18S ribosomal DNA = experiment: 18S rDNA increase in plasma of stored blood (qPCR, 66 bp and 500 bp amplicons); assay type: cell-based, human; settings: for Released DNA (18S rDNA) after storage: 3 and 6 days RT, vs unstabilized EDTA blood
Procedure: Blood obtained from donors was collected into 10 ml K2 EDTA tubes (BD). 4.5 ml of the respectively collected blood was mixed with 0.9 ml of different stabilization solutions (see below examples on the details of the tested stabilization solutions).
All stabilized blood samples were set up in triplicates per condition and test time point. At time point 0 (reference), immediately after mixing the stabilization solution and blood, plasma was generated and the circulating extracellular DNA was extracted. The residual stabilized blood sample was stored for three days and six days at room temperature.
Plasma was generated from the stabilized and unstabilized (EDTA) blood samples by inverting the blood containing tubes for four times. Then, the tubes were centrifuged for 10 minutes at 1900×g at 4° C. 2.5 ml of the plasma fraction was transferred into a fresh 15 ml falcon tube and centrifuged for 10 minutes at 16.000×g at 4° C. 2 ml of the respectively cleared plasma was used for extracellular nucleic acid isolation using the QIAamp circulating nucleic acid kit (QIAGEN) according to the manufacturer's instructions.
The isolated extracellular DNA was analyzed using two different qPCR assays, targeting different fragment lengths of the 18S ribosomal DNA:
Cycle threshholds of the individual samples were translated into amount of gDNA in the eluate, according to a gDNA standard curve. The gDNA amount of the storage time points was compared to the time zero gDNA level from the same donor and is shown as fold increase in the figures. Especially the increase of the 500 bp fragment in the plasma fraction of the blood sample after storage is an indication for a lysis/destruction of white blood cells. Thus, the lower the amount of released 500 bp DNA, the better the performance of the stabilization method.

CD3 on lymphocytes = experiment: aCD3 FACS analysis of cell and cell surface epitope integrity; assay type: cell-based, human; settings: EDTA blood, test solution 5% v/v DMPA, RT 0 h, 24 h, 72 h
Procedure: FIG. 5: Fluorescence activated cell sorting (aCD3 FACS) analysis of sample aliquots from blood collected from one donor into EDTA tubes. Blood aliquots were subjected to FACS using PE-conjugated anti-CD3 antibody from samples that were not incubated after blood collection (0 h) and samples after one and three days of incubation at RT (24 h, 72 h). The number of fluorescence-labelled cells was counted and the intensity of the fluorescence signal per event was quantified. Intensity (x-axis) and number of fluorescence signals (y-axis) are shown as histograms. Thresholds were defined to differentiate unspecific weak fluorescence signals (−) from stronger specific fluorescence signals caused by specifically bound anti-CD3 antibody to cells (+). […]
Cell and cell surface epitope integrity was analysed by fluorescence activated cell sorting (FACS) using fluorescence conjugated anti-CD3 antibody
In addition, cell and cell surface epitope integrity was analysed in the stabilized samples by fluorescence activated cell sorting (FACS). In detail, the presence and accessibility of cell surface proteins was analysed by binding of fluorescence conjugated antibody (PE-labelled anti-CD3) directed against cellular epitope CD3 that is specific for lymphocytes, while other white blood cell subtypes (monocytes, neutrophilic granulocytes) are CD3 negative.

blood samples = experiment: Inspection of plasma for hemolysis; assay type: cell-based, human; settings: Example 4: 2.5% and 5% DMPA with caspase inhibitor
Description: The focus of the analysis was the stabilization of the extracellular nucleic acid population as determined by analyzing the increase of 18S rDNA. Shown is the increase of DNA relative to time point 0 with 2.5%, 5% and 7.5% N,N dimethylpropanamide (DMPA) or 5% DMAA with caspase inhibitor (fold change) using different amplicon lengths of 18SrRNA gene. Bars indicate the mean of the triplicate samples per condition and test time point. […] Thus, a stabilization of the extracellular nucleic acid population was achieved. Furthermore, the obtained plasma was inspected in order to analyse whether hemolysis occurred.

[1] = test system: FOS, IL1B, IL8 and TP53 transcripts; experiment: Transcript level stabilisation in stored blood, real time RT-PCR; assay type: cell-based, human; settings: blood incubated at RT for 0, 24 and 72 hours; DMPA 5% v/v final in EDTA blood, 5xMOPS pH5.5
Description: A test system and study setup was established that allows the identification of reagent compositions that have gene transcript stabilisation capabilities, as indicated by constant levels of transcripts from selected genes (c-fos, IL-1beta, IL-8, p53). These transcripts were identified in prior studies as very unstable transcripts during storage, which are induced or down regulated (gains and losses of transcripts) within minutes after blood collection and were therefore chosen as “worst case” markers for screening purposes.
Blood was collected from multiple donors into replicate EDTA blood tubes (BD, [−] control of sample stabilisation) and PAXgene Blood RNA Tubes (PreAnalytiX) serving as [+] control of sample stabilisation. PAXgene Blood RNA tubes contain a composition (see also background of the invention) that lysis cells and thereby “freeze” the gene transcription profile. PAXgene Blood RNA tubes are for stabilizing blood for gene expression analysis. One aim was to find stabilization method that not based on cell lysis but achieves the same or similar performance as the PAXgene Blood RNA tubes in transcript level stabilization. […]
Transcript levels of all RNA samples were analysed by real time RT-PCR using monoplex assays of FOS, IL1B, IL8 and TP53, normalized to the amount of template input into the reaction. […]

PKC = settings: cited from earlier work

**Q.** Which “k2 calpain II” value (calpain II) does the source give for “Cbz-Leu-Leu-Tyr-CH2F [Calpain Inhibitor IV]” here?
**A.** The value was “= 28,900 M-1s-1). Also acts as an inhibitor of cathepsin L (k2 =”.

**Q.** With Cbz-Val-Ala-Asp-CH2F as the compound, how does the Cytotoxicity (cells) read?
**A.** Its Cytotoxicity is “no added cytotoxic effects”.

**Q.** For CCC(=O)N(C)C [DMPA, N,N-dimethylpropanamide], which “Increase in 18S rDNA relative to time point 0” value (18S ribosomal DNA; Example 2: DMPA […], 2% or 2.5% without caspase inhibitor, 7.2 mg K2 EDTA/ml, RT up to 6 days, vs EDTA blood) is on record?
**A.** Its value is “significantly reduced increase in 18S rDNA”.

**Q.** What about the “Released DNA (18S rDNA) after storage” value (18S ribosomal DNA; Example 3: 2.5%, 5% or 7.5% (v/v) with 1 μM Quinoline-Val-Asp-CH2-OPH and K2 EDTA) of the same compound?
**A.** Its value is “significantly lower amounts of released DNA”.

**Q.** And the “Released DNA (18S rDNA) after storage” value (18S ribosomal DNA; Example 4: 2.5%, 5% or 7.5% DMPA with 1 μM caspase inhibitor, 7.2 mg K2 EDTA/ml)?
**A.** The value was “significantly lower amounts of released DNA”.

**Q.** And the “Increase in 18S rDNA relative to time point 0” value (18S ribosomal DNA; Example 5: DMPA in different concentrations with 1 μM caspase inhibitor, 7.2 mg K2 EDTA/ml)?
**A.** The value was “significantly reduced increase in 18S rDNA”.

**Q.** What about the “Detection of lymphocytes by PE-conjugated anti-CD3 FACS” value (CD3 on lymphocytes) of the same compound?
**A.** Its value is “detectable for up to three days”.

**Q.** What about the “Hemolysis in plasma obtained from stabilized blood” value (blood samples) of the same compound?
**A.** The value was “did not show signs of hemolysis”.

**Q.** What about the “Relative transcript levels of FOS, IL1B, IL8 and TP53 (CT values) over storage” value [1] of the same compound?
**A.** Its value is “stabilised expression levels”.

**Q.** Which “IC50 PKC” value (PKC) does the source give for O=c1c(O)c(-c2ccc(O)c(O)c2)oc2cc(O)cc(O)c12 [Quercetin] here?
**A.** The value was 15 μg/ml. It strongly abrogated PI3K and Src kinases, mildly.
